In patent publication US8450400B2, “Polypropylene resin composition and molded article made thereof” (Sumitomo Chemical Company, Limited, priority 2007, dated 2013):

Assay: Weight loss rate by thermogravimetric analysis (TG-DTA) to 300° C. under nitrogen
Assay type: physicochemical
Conditions: room temperature to 300° C. at 10° C./min, nitrogen gas atmosphere (100 ml/min)
Description: Regarding requirement (c), from the viewpoint of the staining of a mold, the emitted amount of VOC, and the weather resistance, the weight loss rate measured in a thermogravimetric analysis at a temperature of 300° C. under a nitrogen gas atmosphere preferably is less than 5% by weight, and more preferably is less than 3% by weight. The weight loss rate measured by the thermogravimetric analysis of a hindered amine light stabilizer (D) to be used for the present invention is a value determined by using a thermo gravimetry differential thermal analyzer (TG-DTA). Described concretely, it is a weight loss rate determined using a thermobalance when the temperature of a hindered amine light stabilizer (D) is increased from room temperature to 300° C. at a rate of 10° C. per minute under a nitrogen gas atmosphere (in a nitrogen flow at a flow rate of 100 ml/min).
From the viewpoint of inhibiting mold staining, the weight loss rate of the nonionic antistatic agent (E) to be used for the present invention measured by thermogravimetric analysis executed at a temperature of 300° C. under a nitrogen atmosphere preferably is less than 20% by weight, and more preferably 5 to 15% by weight. The weight loss rate is determined by the use of a thermo gravimetry differential thermal analyzer (TG-DTA). Described concretely, it is a weight loss rate determined using a thermobalance when the temperature of the nonionic antistatic agent (E) is increased from room temperature to 300° C. at a rate of 10° C. per minute under a nitrogen gas atmosphere (in a nitrogen flow at a flow rate of 100 ml/min).
The weight loss by thermogravimetric analysis (TG-DTA) of a light stabilizer was measured with a thermo gravimetry differential thermal analyzer from room temperature to 300° C. at a temperature increasing rate of 10° C./min under a nitrogen gas atmosphere (gas flow rate: 100 ml/min). […]

Compound: CC1(C)CC(OC(=O)CCCCCCCCC(=O)OC2CC(C)(C)NC(C)(C)C2)CC(C)(C)N1 [Example D-2, Bis(2,2,6,6-tetramethyl-4-piperidyl) sebacate]
- Weight loss rate by TG-DTA: 19.6 % by weight

Compound: CC(C)(C)c1ccc(OC(=O)c2cc(C(C)(C)C)c(O)c(C(C)(C)C)c2)c(C(C)(C)C)c1 [Example D-3, 2,4-di-tert-butylphenyl 3,5-di-tert-butyl-4-hydroxybenzoate]
- Weight loss rate by TG-DTA: 31.6 % by weight

Compound: Stearic acid monoglyceride [Example E-1]
- Weight loss rate by TG-DTA: 23.8 % by weight
